From the supplement of paper PMC10307832

What was measured:
Assay in all cases: relative viability (nuclei count vs DMSO), 5 days (fraction); higher = more cells survive
[1] = compound: Cc1ccc(NC(=O)c2ccc(CN3CCN(C)CC3)cc2)cc1Nc1nc(-c2cccnc2)cs1 [Masitinib] + Nc1ncn([C@H]2C[C@H](O)[C@@H](CO)O2)c(=O)n1 [Decitabine] (partner 2 µM)
In short: (§1)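 Values are medians from duplicate plates. Each reflects relative viability, defined as the nuclei count of treated wells over that of vehicle wells. Lung cancer cell lines in 1536-well plates were pin-tool dosed one day after seeding with one drug alone or with a fixed anchor-drug dose plus five library-drug doses (not always all listed) in √10 steps, then fixed, stained and imaged at 4× after 5 days.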

[2] = compound: CC1=CC(=CC=C1)NC2=NC(=CS2)C3=CC=NC=C3 + Nc1nc2[nH]cc(CCc3ccc(C(=O)N[C@@H](CCC(=O)O)C(=O)O)cc3)c2c(=O)[nH]1 [Pemetrexed] (partner 0.2 µM)
In short: as §1

[3] = compound: Cc1ccc(NC(=O)c2ccc(CN3CCN(C)CC3)cc2)cc1Nc1nc(-c2cccnc2)cs1 [Masitinib] + COc1cccc2cc(-c3nc([C@H]4CC[C@H](C(=O)O)CC4)n4ncnc(N)c34)[nH]c12 [OSI-027] (partner 0.5 µM)
In short: as §1

[4] = compound: Cc1ccc(NC(=O)c2ccc(CN3CCN(C)CC3)cc2)cc1Nc1nc(-c2cccnc2)cs1 [Masitinib] + O=C(c1cc(Cc2n[nH]c(=O)c3ccccc23)ccc1F)N1CCN(C(=O)C2CC2)CC1 [Olaparib] (partner 8 µM)
In short: as §1

Cell Line	relative viability ([1]; first compound 0.01 µM)	relative viability ([1]; first compound 0.03162 µM)	relative viability ([1]; first compound 0.1 µM)	relative viability ([1]; first compound 0.3162 µM)	relative viability ([1]; first compound 1 µM)	relative viability ([2]; first compound 0.08 µM)	relative viability ([2]; first compound 0.253 µM)	relative viability ([2]; first compound 0.8 µM)	relative viability ([2]; first compound 2.53 µM)	relative viability ([2]; first compound 8 µM)	relative viability ([3]; first compound 0.01 µM)	relative viability ([3]; first compound 0.1 µM)	relative viability ([3]; first compound 0.3162 µM)	relative viability ([3]; first compound 1 µM)	relative viability ([4]; first compound 0.01 µM)	relative viability ([4]; first compound 0.03162 µM)	relative viability ([4]; first compound 0.1 µM)	relative viability ([4]; first compound 0.3162 µM)	relative viability ([4]; first compound 1 µM)	relative viability ([3]; first compound 0.03162 µM)
BEN	0.727	0.739	0.753	0.699	0.728	0.685	0.841	0.936	0.584	0.682	0.306	0.325	0.26	0.436	1.21	1.1	1.4	1.23	1.08	–
LC-2-ad	0.837	0.795	0.85	0.795	0.894	0.269	0.281	0.308	0.258	0.276	0.862	0.929	0.738	0.768	0.708	0.715	0.719	0.702	0.73	0.904
SW 1573	0.492	0.537	0.535	0.51	0.471	0.835	0.746	0.787	0.763	0.763	0.646	0.798	0.66	0.559	0.505	0.472	0.591	0.431	0.453	0.627
ChaGo-K-1	0.553	0.526	0.536	0.526	0.534	0.259	0.272	0.249	0.266	0.252	0.779	0.603	0.695	0.538	0.39	0.435	0.405	0.35	0.392	0.537
COR-L 105	0.617	0.658	0.619	0.61	0.639	1.01	0.903	0.898	1.02	0.797	0.682	0.764	0.613	0.533	0.655	0.532	0.689	0.494	0.498	0.705
NCI-H1993	0.49	0.545	0.534	0.459	0.496	0.507	0.517	0.618	0.547	0.578	0.533	0.489	0.541	0.514	1.13	0.876	1.19	1.1	1.01	0.533
NCI-H2009	0.368	0.332	0.409	0.406	0.371	0.938	1.05	1	1	0.914	0.591	0.646	0.616	0.606	0.733	0.546	0.818	0.702	0.635	0.654
SK-LU-1	0.569	0.526	0.725	0.594	0.646	0.906	1.03	0.691	0.997	0.937	0.361	0.346	0.329	0.368	0.419	0.486	0.436	0.524	0.497	0.334
NCI-H2347	0.598	0.529	0.614	0.669	0.652	0.431	0.42	0.41	0.404	0.385	0.403	0.447	0.354	0.467	0.507	0.591	0.597	0.621	0.53	0.531
HCC-366	–	0.339	0.369	0.389	0.33	0.154	0.123	0.121	0.113	0.0949	–	–	0.792	0.78	–	0.384	0.357	0.343	0.396	1
EMC-BAC-2	0.771	–	0.918	1.02	0.957	0.393	0.402	0.413	0.432	0.393	0.379	0.379	0.379	0.354	0.457	0.484	0.481	0.416	0.456	0.381
NCI-H3122	0.528	0.484	0.525	0.467	0.451	0.202	0.202	0.191	0.226	0.19	–	–	0.969	1.09	0.64	0.604	0.703	0.589	0.615	1.38
SK-MES-1	0.329	0.399	0.376	0.39	0.337	0.757	0.762	0.787	0.822	0.862	0.615	0.684	0.52	0.651	0.775	0.761	0.798	0.629	0.653	0.668
NCI-H2170	0.467	0.473	0.509	0.488	0.449	0.229	0.286	0.27	0.26	0.264	0.701	0.791	0.606	0.726	0.546	0.698	0.672	0.576	0.559	0.75
NCI-H2342	0.724	0.648	0.683	0.79	0.833	0.615	0.796	0.765	0.789	0.759	0.637	0.696	0.592	0.593	0.447	0.485	0.425	0.44	0.36	0.58
EPLC-272H	0.369	0.344	0.358	0.388	0.313	0.404	0.375	0.264	0.31	0.332	0.257	0.281	0.315	0.286	0.927	–	0.866	0.655	0.768	0.274
NCI-H1975	0.324	0.417	0.381	0.293	0.34	0.277	0.25	0.257	0.24	0.239	0.937	0.864	–	0.509	0.79	0.727	0.78	0.642	0.839	0.793

Cell Line	relative viability ([1]; first compound 0.01 µM)	relative viability ([1]; first compound 0.03162 µM)	relative viability ([1]; first compound 0.1 µM)	relative viability ([1]; first compound 0.3162 µM)	relative viability ([1]; first compound 1 µM)	relative viability ([2]; first compound 0.08 µM)	relative viability ([2]; first compound 0.253 µM)	relative viability ([2]; first compound 0.8 µM)	relative viability ([2]; first compound 2.53 µM)	relative viability ([2]; first compound 8 µM)	relative viability ([3]; first compound 0.01 µM)	relative viability ([3]; first compound 0.1 µM)	relative viability ([3]; first compound 0.3162 µM)	relative viability ([3]; first compound 1 µM)	relative viability ([4]; first compound 0.01 µM)	relative viability ([4]; first compound 0.03162 µM)	relative viability ([4]; first compound 0.1 µM)	relative viability ([4]; first compound 0.3162 µM)	relative viability ([4]; first compound 1 µM)	relative viability ([3]; first compound 0.03162 µM)
NCI-H647	0.369	0.318	0.487	0.408	0.364	0.181	0.154	0.147	0.167	0.151	0.685	0.699	0.579	0.602	0.572	0.408	0.789	0.596	0.642	0.651
NCI-H441	0.214	0.23	0.262	0.233	0.244	0.265	0.265	0.246	0.255	0.255	0.654	0.798	0.717	0.429	0.53	0.403	0.602	0.586	0.553	0.628
NCI-H1355	0.351	0.345	0.393	0.341	0.367	0.866	0.778	0.791	0.75	0.692	0.345	0.42	0.345	0.37	0.727	0.665	0.754	0.521	0.761	0.359
NCI-H23	0.312	0.346	0.341	0.274	0.262	0.629	0.447	0.66	0.582	0.778	0.49	0.617	0.575	0.559	0.294	0.256	0.295	0.242	0.264	0.572
NCI-H522	0.707	0.897	0.8	0.696	0.646	0.966	1.12	1.17	0.995	1.19	0.784	0.781	0.781	0.698	0.609	0.766	0.66	0.534	0.619	–
NCI-H650	0.307	0.343	0.308	0.298	0.36	0.953	0.88	1.07	0.863	1.06	0.538	0.536	0.344	0.524	0.41	0.386	0.422	0.394	0.324	0.427
NCI-H1793	0.486	0.509	0.502	0.53	0.591	0.603	0.779	0.808	0.604	0.957	0.318	0.285	0.28	0.254	0.893	0.777	1.04	1.08	0.768	0.205
NCI-H358	0.184	0.195	0.243	0.189	0.192	0.153	0.19	0.175	0.176	0.166	0.85	0.859	0.665	0.731	0.549	0.621	0.603	0.604	0.607	0.762
NCI-H2087	0.25	0.247	0.32	0.223	0.254	0.637	0.623	0.591	0.63	0.711	0.627	0.743	0.481	0.437	0.73	0.583	0.63	0.523	0.7	0.628
NCI-H838	0.446	0.475	0.432	0.445	0.44	0.26	0.228	0.263	0.257	0.241	0.353	0.385	0.342	0.394	0.835	0.739	0.83	0.638	0.832	0.331
NCI-H460	0.307	0.378	0.45	0.455	0.462	0.0627	0.0625	0.0614	0.0648	0.0687	0.796	0.674	0.558	0.522	0.38	0.381	0.436	0.463	0.415	0.705
LOU-NH91	0.797	0.754	0.792	0.785	0.783	0.38	0.391	0.348	0.366	0.366	0.702	0.723	0.58	0.655	0.883	0.917	0.902	0.869	0.908	0.667
NCI-H322M	0.626	0.733	0.612	0.719	0.706	0.564	0.576	0.608	0.615	0.624	0.64	0.605	0.551	0.514	0.733	0.726	0.857	0.729	0.128	0.531
NCI-H520	0.482	0.482	0.513	0.59	0.437	0.706	0.678	0.677	0.865	0.644	0.267	0.261	0.237	0.228	0.305	0.409	0.362	0.332	0.277	0.265
NCI-H661	0.502	0.552	0.515	0.535	0.545	0.876	0.959	0.889	0.907	0.871	0.672	0.727	0.643	0.528	0.722	0.779	0.802	0.731	0.711	0.648
NCI-H1944	–	0.398	–	0.423	0.384	0.543	0.6	0.636	0.654	0.476	–	–	0.352	0.382	–	0.344	–	0.364	0.374	0.423
